# Measurements: US12343319B2, “Compositions and methods for treatment of diseases and disorders” (Atai Therapeutics Inc., priority 2023, dated 2025)
# Like-named read-outs stand apart in the source and are kept apart here.
# Columns and labels:
# Male WKY rats = assay: Sleep-wake behavior, EEG power, body temperature and locomotor activity in WKY rats; format: in vivo, rat
# Description: Male WKY rats (n=7, 289-388 g at the start of dosing) were housed in groups of 2-3 animals per cage with standard housing conditions. For implantation of the EEG electrodes and radio transmitter, the animals were anesthetized with isoflurane (2-5% in oxygen at 11/min) throughout the procedure. The scalp, neck and right flank were cleared of hair using clippers and cleaned using diluted Hibitane (chlorhexidine, 50% (v/v) in water). A non-steroidal anti-inflammatory agent was administered (carprofen 5 mg/kg, s.c.) and the animals placed on a homeothermic blanket (37° C.) with the head fixed in a stereotaxic frame. Incisions were made in the scalp and neck, as well as in the right flank. Blunt dissection of the abdominal muscle was then made to gain access to the peritoneal cavity. A radio transmitter (HD-S02, Data Sciences International) was implanted in the peritoneal cavity and secured to the muscle wall with non-absorbable sutures. The wires of the transmitter were passed using a 19G needle through the muscle wall and then sub-dermally to the scalp to act as Electroencephalogram (EEG)/Electromyograph (EMG) electrodes. The scalp was cleared of connective tissue and two craniotomies were made with a trepanning drill (fronto-parietal coordinates; Bregma+2 mm anterior, midline+1.0 mm lateral and Lambda 0 mm, +1.5 mm lateral). The positive EEG electrode was attached to the anterior craniotomy and the negative EEG electrode to the posterior craniotomy. Both electrodes were secured in place using a suitable adhesive agent (cyanoacrylate gel, RS components). A second set of electrodes were sutured into the nuchal muscle to act as EMG electrodes. All incisions were closed using absorbable suture.
# All animals were allowed to recover in a warm environment and given 5 ml of saline subcutaneously (s.c.). Animals were kept singly in the cage until the next day, then pair housed for the duration of post-surgical recovery (minimum 7 days). During the recovery period, the rats received 5 days of standard post-operative care with no further experimental procedures until the pre-operative body weight was regained. The animals were maintained on a 12/12 hour light dark cycle (08:00 am lights on) after the surgery. Home cages and post-operative cages contained bedding and nesting material, along with environmental enrichment such as wooden chew-sticks and plastic tunnels.
# On test days, ˜60 minutes after lights-on, animals were placed in recording boxes similar to their home-cages, except that environmental enrichment was restricted to a large bundle of nesting and bedding material, to avoid interference with the telemeter signals. Then, data acquisition was initiated for confirmation of signal quality. EEG and EMG data were acquired using intraperitoneal HD-S02 transmitters (DSI, New Brighton, MN) and Spike2 software (CED). EEG and EMG signals were digitized 500 samples/second, amplified 1000× and bandpass filtered at 0.5-100 Hertz (Hz). After 60 minutes of habituation, each animal was briefly removed from its box and dosed via the intraperitoneal (i.p.) route in a volume of 2 mL/kg. Test conditions included saline vehicle, psilocybin (10 mg/kg) positive control, compound 2-1 at 3, 10 and 30 mg/kg and compound 2-2 at 10, 17 and 30 mg/kg. Doses were based on the molecular weight of the free bases. compound 2-1 and compound 2-2 dosing solutions were prepared in 40% (w/v) hydroxypropyl-beta-cyclodextrin. After dosing, animals were immediately put back into the recording boxes, the experimenter left the room, and recordings continued uninterrupted for 23 hours. At the end of the recording session, the transmitters were turned off and the animals were returned to their home cages. All animals received all treatment conditions in a pseudo randomized cross-over fashion with a minimum washout period of 7 days between doses.
# All data was aligned to zero (the time of dosing), with epochs defined as non-overlapping 10-second time segments. […]
# 5-HT2A = 5-HT2A (Homo sapiens, UniProt P28223); assay: Radioligand binding, 5-HT2A; design: expressed in transfected cells; conditions: for Max % inhibition: radioligand binding, human 5-HT2A
# 5-HT2A receptor = 5-HT2A receptor (Mus musculus, UniProt P35363); assay: Mouse head twitch response (HTR); format: in vivo; design: endogenous in cells; host or cells: adult male C57BL/6J mice, in vivo; conditions: for ED50: mouse
# Description: The head twitch response (HTR) assay in rodents is commonly used as a behavioral proxy for 5-HT2A receptor activation. For classical serotonergic psychedelics, mouse HTR potency correlates with potency of subjective effects in humans. The ability of compound 2-1 to induce HTR in mice was assessed using a validated and automated detection system. Briefly, adult male C57BL/6J mice surgically prepared with a small neodymium magnet (4.57 mm×4.57 mm×2.03 mm) attached to the cranium were injected intraperitoneally (i.p.) with single doses of compound 2-1 (0.3, 1, 3, 10, 30 mg/kg, based on weight of the free base) or 40% (w/v) 2-HPBCD (hydroxypropyl-beta-cyclodextrin) vehicle (n=5-6 mice per treatment). In a 5-HT2A receptor antagonism study, M100907, a 5-HT receptor antagonist (0.001, 0.01, 0.1 mg/kg, i.p.) was administered 20 minutes prior to compound 2-1. Immediately after compound 2-1 injection, the mouse was placed individually in a glass cylinder surrounded by a magnetometer coil. HTR were recorded for 30 minutes and analyzed using a validated technique based on artificial intelligence. […] In FIG. 1A, FIG. 1B, and FIG. 1C, HTR data were analyzed using a 1-way Analysis of Variance (ANOVA) followed by Dunnett's test **p<0.01, ***p<0.001, ****p<0.0001 vs. vehicle).
# The HTR assay in rodents is commonly used as a behavioral proxy for 5-HT2A receptor activation. For classical serotonergic psychedelics, mouse HTR potency correlates with potency of subjective effects in humans. The ability of compound 2-2 to induce HTR in mice was assessed using a validated and automated detection system. Briefly, adult male C57BL/6J mice surgically prepared with a small neodymium magnet (4.57 mm×4.57 mm×2.03 mm) attached to the cranium were injected intraperitoneally (i.p.) with single doses of compound 2-2 (0.3, 1, 3, 10, 30 mg/kg, based on weight of the free base) or 40% (w/v) 2-HPBCD vehicle (n=5-6 mice per treatment). In a 5-HT2A receptor antagonism study, M100907 (0.001, 0.01, 0.1 mg/kg, i.p.) was administered 20 minutes prior to compound 2-2. Immediately after compound 2-2 injection, the mouse was placed individually in a glass cylinder surrounded by a magnetometer coil. HTR were recorded for 30 minutes and analyzed using a validated technique based on artificial intelligence. […] HTR were analyzed using a 1-way Analysis of Variance (ANOVA) followed by Dunnett's test (*p<0.05, **p<0.01, ***p<0.001, ****p<0.0001 vs. vehicle).
# [1] = male WKY rats, IP, initial 4 hours following dosing
# [2] = over 6 hours post dose, WKY rats, IP
# [3] = ip, C57BL/6J mice, 30 minutes, read-out: HTR 50% effective dose (ED50)
# 5-HT2A, sequence (P28223 whole entry): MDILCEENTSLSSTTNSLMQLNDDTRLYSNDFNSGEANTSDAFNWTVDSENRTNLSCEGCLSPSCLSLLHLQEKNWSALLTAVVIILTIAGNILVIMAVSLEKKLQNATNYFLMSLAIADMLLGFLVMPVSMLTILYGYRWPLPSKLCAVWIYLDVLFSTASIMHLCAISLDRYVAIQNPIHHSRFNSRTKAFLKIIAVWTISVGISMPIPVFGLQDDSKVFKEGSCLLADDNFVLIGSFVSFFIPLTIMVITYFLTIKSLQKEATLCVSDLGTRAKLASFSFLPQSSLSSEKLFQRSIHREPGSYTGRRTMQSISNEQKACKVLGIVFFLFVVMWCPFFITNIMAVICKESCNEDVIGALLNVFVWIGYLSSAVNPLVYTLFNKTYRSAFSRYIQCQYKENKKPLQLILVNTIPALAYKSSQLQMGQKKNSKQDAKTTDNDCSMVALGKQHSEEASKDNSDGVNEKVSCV
# 5-HT2A receptor, sequence (P35363 whole entry): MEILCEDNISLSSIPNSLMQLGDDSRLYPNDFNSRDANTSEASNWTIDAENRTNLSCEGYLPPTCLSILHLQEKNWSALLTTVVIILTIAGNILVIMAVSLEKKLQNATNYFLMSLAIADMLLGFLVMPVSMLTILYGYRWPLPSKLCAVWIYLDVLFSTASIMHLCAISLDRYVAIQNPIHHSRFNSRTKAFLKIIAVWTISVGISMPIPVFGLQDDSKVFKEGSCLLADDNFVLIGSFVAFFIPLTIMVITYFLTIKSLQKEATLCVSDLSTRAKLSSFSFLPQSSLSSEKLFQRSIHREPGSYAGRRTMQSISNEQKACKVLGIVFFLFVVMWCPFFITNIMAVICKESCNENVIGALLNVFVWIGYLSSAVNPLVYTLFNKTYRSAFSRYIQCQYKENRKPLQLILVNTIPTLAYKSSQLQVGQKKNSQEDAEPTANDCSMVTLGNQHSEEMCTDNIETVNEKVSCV
smiles,measurement,setting,value
"COc1ccc(OC)c(CCNCc2cc(C)cc(Cl)c2)c1 [Compound 2-1, N-(3-chloro-5-methylbenzyl)-2-(2,5-dimethoxyphenyl)ethan-1-amine]",non-REM sleep amount vs vehicle,"Male WKY rats; 3 mg/kg i.p., interval starting at 5 hours post dose",significantly increased
same,latency to non-REM (NREM) sleep vs vehicle,Male WKY rats; 10 mg/kg i.p.,significantly increased
same,persistence of significant effect on delta power during non-REM sleep,Male WKY rats; 30 mg/kg i.p.,persisted through the period starting at 4 hours post dose
same,high gamma power during waking,"Male WKY rats; 30 mg/kg i.p., over 24 hours post dose",significant and lasting decrease
same,amount of time spent in wake vs vehicle,"Male WKY rats; 3, 10 and 30 mg/kg i.p.",significantly increased
same,amount of time spent in non-REM sleep vs vehicle,"Male WKY rats; 3, 10 and 30 mg/kg i.p., first 3 hours after administration",significantly decreased
same,low frequency (delta and theta) power during non-REM sleep,"Male WKY rats; 3, 10 and 30 mg/kg i.p., post-dose period 0-2 hours",significantly decreased
same,latency to REM sleep vs vehicle,Male WKY rats; 10 and 30 mg/kg i.p.,significantly increased
same,amount of time spent in REM sleep vs vehicle,"Male WKY rats; 10 and 30 mg/kg i.p., starting in the third hour post dose",significantly decreased
same,waking high gamma power,Male WKY rats; [1],decreased
same,waking theta and beta power,Male WKY rats; [1],significantly increased
same,body temperature,Male WKY rats; [2],↓ (for 6 h)
same,IC50,5-HT2A,42.4 nM
same,Max % inhibition,5-HT2A,96.93%
same,shape of HTR dose-response curve,5-HT2A receptor; 0.3-30 mg/kg i.p.,inverted “U”-shaped
same,HTR compared to vehicle,"5-HT2A receptor; 3 and 10 mg/kg, i.p.",significantly increased
same,HTR after M100907 pretreatment,"5-HT2A receptor; M100907 0.001, 0.01, 0.1 mg/kg i.p. 20 minutes prior, compound i.p.",significant dose-dependent attenuation
same,ED50,5-HT2A receptor; [3],1.7 mg/kg
same,ED50,"5-HT2A receptor; po, mice, read-out: HTR ED50",15.7 mg/kg
same,HTR compared to vehicle,"5-HT2A receptor; oral, 30 mg/kg",increased HTR significantly
"COc1ccc(OC)c(CCNCc2cc(C)cc(F)c2)c1 [Compound 2-2, 2-(2,5-dimethoxyphenyl)-N-(3-fluoro-5-methylbenzyl)ethan-1-amine]",effects on body temperature and locomotor activity,Male WKY rats; male WKY rats,minimal effects
same,Locomotor activity,Male WKY rats; [2],No Δ (No significant change)
same,IC50,5-HT2A,105 nM
same,Max % inhibition,5-HT2A,99%
same,ED50,5-HT2A receptor; [3],3.2 mg/kg
same,ED50,"5-HT2A receptor; po, mice, read-out: HTR ED50",13.7 mg/kg
